{"source": "patent US20180118756A1", "about": "“COMPOSITIONS AND METHODS OF MODULATING SHORT-CHAIN DEHYDROGENASE ACTIVITY” (CASE WESTERN RESERVE UNIVERSITY, priority 2015, published 2018)", "key": {"[1]": {"assay": "aqueous solubility in pH 7 or pH 4 citrate buffer solution", "type": "physicochemical"}, "recombinant 15-PGDH": {"molecular_target": "T1, recombinant 15-PGDH (Homo sapiens, UniProt P15428)", "T1 sequence (P15428 1-266)": "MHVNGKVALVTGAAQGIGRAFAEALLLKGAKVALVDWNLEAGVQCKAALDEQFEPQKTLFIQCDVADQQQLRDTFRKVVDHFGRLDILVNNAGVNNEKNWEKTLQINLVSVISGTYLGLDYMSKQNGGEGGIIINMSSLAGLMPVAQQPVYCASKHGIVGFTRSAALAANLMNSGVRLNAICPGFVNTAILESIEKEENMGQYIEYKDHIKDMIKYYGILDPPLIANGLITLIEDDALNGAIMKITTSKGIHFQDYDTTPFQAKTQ", "assay": "IC50 for inhibiting enzymatic activity of recombinant 15-PGDH in an in vitro assay", "type": "biochemical", "conditions": "recombinant human 15-PGDH at 5 nM, in vitro"}, "[2]": {"conditions": "citrate buffer solution, pH 4, aqueous buffer, pH 4 citrate buffer solution, read-out: pH 4 solubility"}, "[3]": {"conditions": "citrate buffer solution, pH 7, aqueous buffer, pH 7 citrate buffer solution, read-out: pH 7 solubility"}, "[4]": {"conditions": "read-out: Enzyme Inhibitor IC50 (nM) at 5 nM 15-PGDH"}, "[5]": {"conditions": "Enzyme Inhibitor IC50 (nM) at 5 nM 15-PGDH"}}, "note": "Read-outs that look alike come from different tables or passages of the source.", "data": [{"molecule": "CCCC[S+]([O-])c1sc2nc(-c3nccs3)cc(-c3cnc(C4CC4)n3C)c2c1N", "note": "(single isomer, unassigned) [SW 212345]", "values": [{"measurement": "solubility", "setting": "[1]; [2]", "value": 164, "unit": "µg/mL"}, {"measurement": "solubility", "setting": "[1]; [3]", "value": 4, "unit": "µg/mL"}]}, {"molecule": "CCCC[S+]([O-])c1sc2nc(-c3nccs3)cc(-c3cnc(C)n3C)c2c1N", "note": "(single isomer, unassigned; (+)) [(+)-(R)- SW 209415]", "values": [{"measurement": "pH 7 solubility (μg/mL)", "setting": "[1]; pH 7 citrate buffer solution", "value": 2, "unit": "μg/mL"}]}, {"molecule": "CCCC[S+]([O-])c1sc2nc(-c3nccs3)ccc2c1N", "note": "(stereo not drawn) [SW 206992]", "values": [{"measurement": "solubility", "setting": "[1]; [3]", "value": 4.76, "unit": "µg/mL"}]}, {"molecule": "CCCC[S+]([O-])c1sc2nc(-c3cccs3)cc(C)c2c1N", "note": "(stereo not drawn) [SW 208488]", "values": [{"measurement": "solubility", "setting": "[1]; [3]", "value": 2.6, "unit": "µg/mL"}]}, {"molecule": "CCCC[S+]([O-])c1sc2nc(-c3ncco3)cc(-c3ccccc3)c2c1N", "note": "(stereo not drawn) [SW 208496]", "values": [{"measurement": "solubility", "setting": "[1]; [3]", "value": 2.2, "unit": "µg/mL"}]}, {"molecule": "CC(C)[S+]([O-])c1sc2nc(-c3ncco3)cc(-c3ccccc3)c2c1N", "note": "(stereo not drawn) [SW 208660]", "values": [{"measurement": "IC50", "setting": "recombinant 15-PGDH; [4]", "value": 2.86, "unit": "nM"}, {"measurement": "solubility", "setting": "[1]; [3]", "value": 11.6, "unit": "µg/mL"}]}, {"molecule": "Cc1cc(-c2nccs2)nc2sc([S+]([O-])C(C)C)c(N)c12", "note": "(stereo not drawn) [SW 208664]", "values": [{"measurement": "IC50", "setting": "recombinant 15-PGDH; [4]", "value": 7.62, "unit": "nM"}, {"measurement": "solubility", "setting": "[1]; [3]", "value": 9.7, "unit": "µg/mL"}]}, {"molecule": "CCCC[S+]([O-])c1sc2nc(-c3nccs3)cc(-c3cccnc3)c2c1N", "note": "(stereo not drawn) [SW 208777]", "values": [{"measurement": "solubility", "setting": "[1]; [2]", "value": 3.8, "unit": "µg/mL"}, {"measurement": "solubility", "setting": "[1]; [3]", "value": 3.4, "unit": "µg/mL"}]}, {"molecule": "CC(C)[S+]([O-])c1sc2nc(-c3nccs3)cc(-c3cccnc3)c2c1N", "note": "(stereo not drawn) [SW 208778]", "values": [{"measurement": "solubility", "setting": "[1]; [2]", "value": 26, "unit": "µg/mL"}, {"measurement": "solubility", "setting": "[1]; [3]", "value": 9.9, "unit": "µg/mL"}]}, {"molecule": "CC(C)[S+]([O-])c1sc2nc(-c3nccs3)cc(-c3ccccc3)c2c1N", "note": "(stereo not drawn) [SW 208780]", "values": [{"measurement": "IC50", "setting": "recombinant 15-PGDH; [4]", "value": 5.55, "unit": "nM"}, {"measurement": "solubility", "setting": "[1]; [3]", "value": 0.65, "unit": "µg/mL"}]}, {"molecule": "CCCC[S+]([O-])c1sc2nc(-c3nccs3)cc(-c3nccn3C)c2c1N", "note": "(stereo not drawn) [SW 209125]", "values": [{"measurement": "solubility", "setting": "[1]; [2]", "value": 31.6, "unit": "µg/mL"}]}, {"molecule": "CC(C)[S+]([O-])c1sc2nc(-c3nccs3)cc(-c3nccn3C)c2c1N", "note": "(stereo not drawn) [SW 209279]", "values": [{"measurement": "solubility", "setting": "[1]; [2]", "value": 73, "unit": "µg/mL"}, {"measurement": "solubility", "setting": "[1]; [3]", "value": 37.7, "unit": "µg/mL"}]}, {"molecule": "CCC[S+]([O-])c1sc2nc(-c3nccs3)cc(-c3nccn3C)c2c1N", "note": "(stereo not drawn) [SW 209280]", "values": [{"measurement": "solubility", "setting": "[1]; [2]", "value": 88, "unit": "µg/mL"}, {"measurement": "solubility", "setting": "[1]; [3]", "value": 17, "unit": "µg/mL"}]}, {"molecule": "CCCC[S+]([O-])c1sc2nc(-c3nccs3)cc(-c3cnc(C)n3C)c2c1N", "note": "(stereo not drawn) [SW 209415, 2-(butylsulfinyl)-4-(1,2-dimethyl-1H-imidazol-5-yl)-6-(thiazol-2-yl)thieno[2,3-b]pyridin-3-amine]", "values": [{"measurement": "solubility", "setting": "[1]; [2]", "value": 241, "unit": "µg/mL"}, {"measurement": "solubility", "setting": "[1]; [3]", "value": 54.3, "unit": "µg/mL"}]}, {"molecule": "CCCC[S+]([O-])c1sc2nc(-c3nccs3)cc(-c3cccc(CO)c3)c2c1N", "note": "(stereo not drawn) [SW 209418]", "values": [{"measurement": "solubility", "setting": "[1]; [3]", "value": 5.9, "unit": "µg/mL"}]}, {"molecule": "CCCC[S+]([O-])c1sc2nc(-c3nccs3)cc(-c3ccc(OCCO)cc3)c2c1N", "note": "(stereo not drawn) [SW 211688]", "values": [{"measurement": "solubility", "setting": "[1]; [2]", "value": 1180, "unit": "µg/mL"}, {"measurement": "solubility", "setting": "[1]; [3]", "value": 115, "unit": "µg/mL"}]}, {"molecule": "CCCC[S+]([O-])c1sc2nc(-c3nccs3)cc(-c3ccc(COC(=O)NCCCl)cc3)c2c1N", "note": "(stereo not drawn) [SW 213064, 4-(3-amino-2-(butylsulfinyl)-6-(thiazol-2-yl)thieno[2,3-b]pyridin-4-yl)benzyl (2-chloroethyl)carbamate]", "values": [{"measurement": "IC50", "setting": "recombinant 15-PGDH; [5]", "value": 5.9, "unit": "nM"}, {"measurement": "solubility", "setting": "[1]; aqueous buffer, pH 7 citrate buffer solution, read-out: pH 7 solubility", "value": 8.27, "unit": "µg/mL"}]}, {"molecule": "COCC[S+]([O-])c1sc2nc(-c3nccs3)cc(-c3nccs3)c2c1N", "note": "(stereo not drawn) [SW 213156]", "values": [{"measurement": "IC50", "setting": "recombinant 15-PGDH; [5]", "value": 5.7, "unit": "nM"}, {"measurement": "solubility", "setting": "[1]; [3]", "value": 3.8, "unit": "µg/mL"}]}, {"molecule": "CCCC[S+]([O-])c1sc2nc(-c3nccs3)cc(-c3ccc(C(C)O)cc3)c2c1N", "note": "(stereo not drawn) [SW 217778, 1-(4-(3-amino-2-(butylsulfinyl)-6-(thiazol-2-yl)thieno[2,3-b]pyridin-4-yl)phenyl)ethan-1-ol]", "values": [{"measurement": "IC50", "setting": "recombinant 15-PGDH; [5]", "value": 2.2, "unit": "nM"}, {"measurement": "solubility", "setting": "[1]; [3]", "value": 7.4, "unit": "µg/mL"}]}, {"molecule": "CCCC[S+]([O-])c1sc2nc(-c3nc(C)cs3)cc(-c3cnc(C)n3C)c2c1N", "note": "(stereo not drawn) [SW 217779, 2-(butylsulfinyl)-4-(1,2-dimethyl-1H-imidazol-5-yl)-6-(4-methylthiazol-2-yl)thieno[2,3-b]pyridin-3-amine]", "values": [{"measurement": "solubility", "setting": "[1]; [2]", "value": 597, "unit": "µg/mL"}, {"measurement": "solubility", "setting": "[1]; [3]", "value": 30.5, "unit": "µg/mL"}]}, {"molecule": "CCCC[S+]([O-])c1sc2nc(-c3nccs3)cc(-c3cncn3C)c2c1N", "note": "(stereo not drawn) [SW 217781, 2-(butylsulfinyl)-4-(1-methyl-1H-imidazol-5-yl)-6-(thiazol-2-yl)thieno[2,3-b]pyridin-3-amine]", "values": [{"measurement": "IC50", "setting": "recombinant 15-PGDH; [5]", "value": 1.9, "unit": "nM"}, {"measurement": "solubility", "setting": "[1]; [2]", "value": 71.8, "unit": "µg/mL"}, {"measurement": "solubility", "setting": "[1]; [3]", "value": 14, "unit": "µg/mL"}]}, {"molecule": "CCCC[S+]([O-])c1sc2nc(-c3nccs3)cc(-c3ccc(OCCOC(=O)CCC(=O)O)cc3)c2c1N", "note": "(stereo not drawn) [SW 217999, 4-(2-(4-(3-amino-2-(butylsulfinyl)-6-(thiazol-2-yl)thieno[2,3-b]pyridin-4-yl)phenoxy)ethoxy)-4-oxobutanoic acid]", "values": [{"measurement": "IC50", "setting": "recombinant 15-PGDH; [5]", "value": 6.2, "unit": "nM"}, {"measurement": "solubility", "setting": "[1]; [3]", "value": 747, "unit": "µg/mL"}]}]}
